In assay [1] the test system is immature castrated rats, ventral prostate (VP) and seminal vesicles (SV). Put plainly: Wet prostate weight assay, AR antagonist assay. The class given is in vivo, rat. The conditions noted are these: for EC50 (organ weight increase): immature castrated rats. An excerpt: Biol. Med., 83, 175 (1953); P. C.
The basis of this assay is the fact that male sexual accessory organs, such as the prostate and seminal vesicles, play an important role in reproductive function. These glands are stimulated to grow and are maintained in size and secretory function by the continued presence of serum testosterone (T), which is the major serum androgen (>95%) produced by the Leydig cells in the testis under the control of the pituitary luteinizing hormone (LH) and follicle stimulating hormone (FSH). […] Adrenal androgens also contribute about 20% of total DHT in the rat prostate, compared to 40% of that in 65-year-old men. F. Labrie et al. Clin. Invest. Med., 16, 475-492 (1993). However, this is not a major pathway, since in both animals and humans, castration leads to almost complete involution of the prostate and seminal vesicles without concomitant adrenalectomy. […] […] […] Since the male sex organs are the tissues most responsive to modulation of the androgen activity, this model is used to determine the androgen dependent growth of the sex accessory organs in immature castrated rats.
Five days after surgery these castrated rats (60-70 g, 23-25 day-old) are dosed for 3 days. […] Animals are dosed (v/w) at 0.5 ml of vehicle/100 g body weight. […] Control vehicle • 2.
At the end of the 3-day treatment, the animals are sacrificed, and the ventral prostate weighed. To compare data from different experiments, the sexual organs weights are first standardized as mg per 100 g of body weight, and the increase in organ weight induced by TP was considered as the maximum increase (100%). ANOVA followed by one-tailed Student or Fischer's exact test is used for statistical analysis.
The gain and loss of sexual organ weight reflect the changes of the cell number (DNA content) and cell mass (protein content), depending upon the serum androgen concentration. See Y. Okuda et al., J. Urol., 145, 188-191 (1991), the disclosure of which is herein incorporated by reference. Therefore, measurement of organ wet weight is sufficient to indicate the bioactivity of androgens and androgen antagonist.

The test system of assay [2] is castrated rats, levator ani, seminal vesicles (SV) and prostate. Put plainly: Levator ani & wet prostate weight assay, AR agonist assay. The note with it: for EC50 (organ weight increase): castrated rats. The class given is in vivo, rat. An excerpt:
The activity of compounds of the present invention as AR agonists is investigated in an immature male rat model, a recognized test of anabolic effects in muscle and sustaining effects in sex organs for a given compound, as described in L. G. Hershberger et al., Proc. Soc. Expt. Biol. Med., 83, 175 (1953); B. L. Beyler et al, “Methods for evaluating anabolic and catabolic agents in laboratory animals”, J. Amer. Med. Women's Ass., 23, 708 (1968); H. Fukuda et al., “Investigations of the levator ani muscle as an anabolic steroid assay”, Nago Dai. Yak. Ken. Nem. 14, 84 (1966) the disclosures of which are herein incorporated by reference.
The basis of this assay lies in the well-defined action of androgenic agents on the maintenance and growth of muscle tissues and sexual accessory organs in animals and man. Androgenic steroids, such as testosterone (T), have been well characterized for their ability to maintain muscle mass. Treatment of animals or humans after castrations with an exogenous source of T results in a reversal of muscular atrophy. The effects of T on muscular atrophy in the rat levator ani muscle have been well characterized. M. Masuoka et al., “Constant cell population in normal, testosterone deprived and testosterone stimulated levator ani muscles” Am. J. Anat. 119, 263 (1966); Z. Gori et al., “Testosterone hypertrophy of levator ani muscle of castrated rats. I. Quantitative data” Boll.-Soc. Ital. Biol. Sper. 42, 1596 (1966); Z. Gori et al., “Testosterone hypertrophy of levator ani muscle of castrated rats. II. Electron-microscopic observations” Boll.-Soc. Ital. Biol. Sper. 42, 1600 (1966); A. Boris et al., Steroids 15, 61 (1970). As described above, the effects of androgens on maintenance of male sexual accessory organs, such as the prostate and seminal vesicles, is well described. Castration results in rapid involution and atrophy of the prostate and seminal vesicles. This effect can be reversed by exogenous addition of androgens. […]

The target in assay [3] is endogenous glucocorticoid receptor (Homo sapiens, UniProt P04150). The conditions noted are these: concentration of ≦10 μM; 10 ng/ml PMA; A549 cells. As to the method:
Cells are plated the day before the assay at approximately 40000 cells/well. […] Activity is measured by analysis in a luminometer as compared to control experiments treated with buffer or dexamethasome.

endogenous glucocorticoid receptor, sequence (P04150 whole entry): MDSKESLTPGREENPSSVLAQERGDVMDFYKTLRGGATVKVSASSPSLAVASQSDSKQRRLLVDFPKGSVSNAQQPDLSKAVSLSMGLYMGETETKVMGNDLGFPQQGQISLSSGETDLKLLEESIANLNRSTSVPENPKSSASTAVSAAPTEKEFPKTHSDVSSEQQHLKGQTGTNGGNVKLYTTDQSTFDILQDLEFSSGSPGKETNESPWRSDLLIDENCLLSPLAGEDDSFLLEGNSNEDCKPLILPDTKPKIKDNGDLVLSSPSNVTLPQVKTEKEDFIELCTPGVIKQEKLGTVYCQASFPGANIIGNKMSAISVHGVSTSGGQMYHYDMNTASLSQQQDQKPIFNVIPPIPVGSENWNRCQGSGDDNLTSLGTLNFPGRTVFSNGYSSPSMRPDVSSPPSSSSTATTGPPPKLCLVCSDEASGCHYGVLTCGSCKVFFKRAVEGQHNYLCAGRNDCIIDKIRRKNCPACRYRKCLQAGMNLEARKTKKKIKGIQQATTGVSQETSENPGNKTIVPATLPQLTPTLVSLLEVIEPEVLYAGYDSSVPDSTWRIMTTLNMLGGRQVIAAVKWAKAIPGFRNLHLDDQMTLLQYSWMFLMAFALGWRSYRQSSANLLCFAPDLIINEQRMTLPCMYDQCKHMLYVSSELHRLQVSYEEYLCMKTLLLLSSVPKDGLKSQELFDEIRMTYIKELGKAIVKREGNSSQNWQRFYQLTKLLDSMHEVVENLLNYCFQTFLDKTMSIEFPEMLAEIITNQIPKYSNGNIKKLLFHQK

For `C[C@]12CC[C@H]3[C@@H](CCC4=CC(=O)CC[C@@]43C)[C@@H]1CC[C@@H]2O` [T, testosterone], the “EC50 (organ weight increase)” value in assay [1] and in assay [2] was “about 1 mg” each time.
Take `CCC(=O)O[C@H]1CC[C@H]2[C@@H]3CCC4=CC(=O)CC[C@]4(C)[C@H]3CC[C@]12C` [TP, testosterone propionate]: the ED80 in assay [1] (immature castrated rat model) came to 0.1 mg. Also, the “EC50 (organ weight increase)” value in assay [1] and in assay [2] was about 0.03 mg throughout. The “potency higher than free T” value in assay [1] (rat, in vivo) is recorded as 10-30 fold; in assay [2] (rat, in vivo), 10-30 fold.
In the case of `C[C@@H]1C[C@H]2[C@@H]3CCC4=CC(=O)C=C[C@]4(C)[C@@]3(F)[C@@H](O)C[C@]2(C)[C@@]1(O)C(=O)CO` [dexamethasone], the “suppression of activity (% inhibition of the reporter system vs buffer control with PMA)” value in assay [3] came out at 65%.
